Measured values from patent publication US12583815B2, “Inhibitors of YAP/TAZ-TEAD oncoproteins, synthesis and use thereof” (BRIDGENE BIOSCIENCES, INC., priority 2020, dated 2026).

molecular target: T1, TEAD1 (Homo sapiens, UniProt P28347); assay: TEAD1-Luciferase reporter assay (MCF-7 cell-based TEAD1-Luc assay); details: cells treated with compound overnight, luciferase chemiluminescence readout
T1 construct: endogenous in cells; host or cells: MCF-7
Method: TEAD1-Luciferase Reporter Assay to Characterize the Pharmacological Properties of the Tead1 Covalent Inhibitors
FIG. 1 is a schematic illustration of the mechanism of TEAD1 inhibition by the disclosed compounds, which is the theoretical basis for the development of a TEAD-YAP/TAZ cell-based functional assay to characterize the pharmacological properties of the synthesized inhibitor compounds. The MCF-7 cell-based TEAD1-Luc assay for the IC50 measurement was performed as below. Compounds 2, 4, 5, and 7, representing different chemical scaffolds, were characterized. About 200 μL of culture medium was placed in each of the 10^4 cell/well in a 96-well plate. The next day the cells were treated with the synthesized compounds for overnight. The luciferase activity was measured with a chemiluminescent assay kit. Specifically, the plate was equilibrated at room temperature. […] and 50 μL of the medium was left inside. To each well was added 50 μL Luciferase reagents. The plates were gently rocked for more than about 15 minutes at room temperature. The luminescence signal was then read and recorded. Table 2 below summarizes the measured IC50 values for the disclosed compounds.

T1 sequence (P28347 whole entry): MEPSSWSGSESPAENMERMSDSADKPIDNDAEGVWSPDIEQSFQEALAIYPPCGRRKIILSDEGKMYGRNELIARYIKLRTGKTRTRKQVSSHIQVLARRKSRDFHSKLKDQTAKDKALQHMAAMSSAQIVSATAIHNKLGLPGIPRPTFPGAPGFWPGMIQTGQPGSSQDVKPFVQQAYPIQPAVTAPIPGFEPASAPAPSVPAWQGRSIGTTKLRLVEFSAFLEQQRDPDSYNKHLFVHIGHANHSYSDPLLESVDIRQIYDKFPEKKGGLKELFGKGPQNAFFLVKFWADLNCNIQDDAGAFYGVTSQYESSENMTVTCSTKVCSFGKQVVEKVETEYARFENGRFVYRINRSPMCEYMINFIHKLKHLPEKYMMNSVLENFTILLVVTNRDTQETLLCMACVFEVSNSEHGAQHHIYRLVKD

Row | Structure (SMILES) | IC50
1 | C#Cc1cccc(Oc2ccc(NC(=O)C=C)cc2)c1 [Compound 3] | ≥ 5 µM
2 | C=CC(=O)Nc1cccc(Oc2ccc(C(F)(F)F)cc2)c1 [Compound 38, N-(3-(4-(trifluoromethyl)phenoxy)phenyl)acrylamide] | ≤ 0.1 µM
3 | C=CC(=O)NC1CC2(CC(NCc3cccc(C(F)(F)F)c3)C2)C1 (stereo not drawn) [Compound 63, N-(6-((3-(trifluoromethyl)benzyl)amino)spiro[3.3]heptan-2-yl)acrylamide] | ≤ 0.1 µM
4 | C=CC(=O)Nc1ccc2c(Oc3ccc(C(F)(F)F)cn3)cccc2c1 [Compound 21, N-(5-((5-(trifluoromethyl)pyridin-2-yl)oxy)naphthalen-2-yl)acrylamide] | ≤ 0.1 µM
5 | C=CC(=O)Nc1ccc(-c2ccn(CCCCC)n2)cc1 [Compound 24, N-(4-(1-pentyl-1H-pyrazol-3-yl)phenyl)acrylamide] | ≤ 0.1 µM
6 | C=CC(=O)Nc1ccc(-c2cc(C(F)(F)F)sn2)cc1 [Compound 54, N-(4-(5-(trifluoromethyl)isothiazol-3-yl)phenyl)acrylamide] | ≤ 0.1 µM
7 | C=CC(=O)NC12CC(COc3cccc(C(F)(F)F)c3)(C1)C2 [Compound 62, N-(3-((3-(trifluoromethyl)phenoxy)methyl)bicyclo[1.1.1]pentan-1-yl)acrylamide] | ≤ 0.1 µM
8 | C=CC(=O)N1CC(Cc2ccc(C(F)(F)F)cc2)C1 [Compound 59, 1-(3-(4-(trifluoromethyl)benzyl)azetidin-1-yl)prop-2-en-1-one] | 0.1 to 5 µM
9 | C=CC(=O)Nc1ccc(-c2cncc(C(F)(F)F)c2)cc1 [Compound 52, N-(4-(5-(trifluoromethyl)pyridin-3-yl)phenyl)acrylamide] | ≤ 0.1 µM
10 | C=CC(=O)Nc1ccc2c(c1)CCC/C2=N\OCC(C)C [Compound 49, (E)-N-(5-(isobutoxyimino)-5,6,7,8-tetrahydronaphthalen-2-yl)acrylamide] | ≤ 0.1 µM
11 | C=CC(=O)Nc1ccc(-c2cc(C(F)(F)F)on2)c(Cl)c1 [Compound 23, N-(3-chloro-4-(5-(trifluoromethyl)isoxazol-3-yl)phenyl)acrylamide] | ≤ 0.1 µM
12 | C=CC(=O)Nc1ccc(-c2cc(C(F)(F)F)no2)c(Cl)c1 [Compound 32, N-(3-chloro-4-(3-(trifluoromethyl)isoxazol-5-yl)phenyl)acrylamide] | ≤ 0.1 µM
13 | C=CC(=O)Nc1ccc(-c2cc(C(C)(C)C)on2)cc1 [Compound 65, N-(4-(5-(tert-butyl)isoxazol-3-yl)phenyl)acrylamide] | 0.1 to 5 µM
14 | C#Cc1cccc(Oc2cccc(NC(=O)C=C)c2)c1 [Compound 2] | 0.1 to 5 µM
15 | C=CC(=O)Nc1ccc2c(c1)CCN(CCCCC)C2=O [Compound 50, N-(1-oxo-2-pentyl-1,2,3,4-tetrahydroisoquinolin-6-yl)acrylamide] | 0.1 to 5 µM
16 | C=CC(=O)N[C@@H]1CC[C@H](Oc2cccc(C(F)(F)F)c2)C1 (single isomer, unassigned) [Compound 41, N-((1R*,3S*)-3-(3-(trifluoromethyl)phenoxy)cyclopentyl)acrylamide] | ≤ 0.1 µM
17 | C=CC(=O)Nc1cc(F)cc(Oc2cccc(C(F)(F)F)c2)c1 [Compound 36, N-(3-fluoro-5-(3-(trifluoromethyl)phenoxy)phenyl)acrylamide] | ≤ 0.1 µM
18 | C=CC(=O)Nc1cccc(Oc2cccc(C(F)(F)F)c2)c1 [Compound 4] | ≤ 0.1 µM
19 | C=CC(=O)Nc1ccc(-c2cc(C(F)(F)F)on2)c(C)c1 [Compound 22, N-(3-methyl-4-(5-(trifluoromethyl)isoxazol-3-yl)phenyl)acrylamide] | ≤ 0.1 µM
20 | C=CC(=O)Nc1ccc(-c2cc(C3CC3)on2)cc1 [Compound 30, N-(4-(5-cyclopropylisoxazol-3-yl)phenyl)acrylamide] | 0.1 to 5 µM
21 | C=CC(=O)NC1CC2(C1)CC(Oc1cccc(C(F)(F)F)c1)C2 (stereo not drawn) [Compound 64, N-(6-(3-(trifluoromethyl)phenoxy)spiro[3.3]heptan-2-yl)acrylamide] | ≥ 5 µM
